Measurements published in patent US9018257B2, “5-aminolevulinic acid derivatives, methods for their preparation and uses thereof” (Bar Ilan University, priority 2011, dated 2015).

Experiments:
K562 cells [1] = assay: PpIX synthesis in K562 cells (FACS fluorescence); assay type: cell-based, human; conditions: 0.5 mM, 96 hours, vs 5-ALA alone, BA alone or their mixture
Procedure: Following treatment, cells are harvested, collected by centrifugation, washed twice and resuspended in 0.5 mL with sterile PBS. PpIX fluorescence is measured in 10,000 cells per sample using a FACS (Becton-Dickinson, CA, USA) with an excitation wavelength of 488 nm and emission wavelength>670 nm. Images of the stained cells are examined using a fluorescent microscope (IX70) (Olympus Tokyo, Japan) using an excitation filter of 330-385 nm and barrier filter at 420 nm […] PpIX fluorescence is measured at the FL-3 channel of FACS Calibur. Additionally, pictures of cells are taken using a fluorescent microscope-Nikon TE200-E, to show PpIX fluorescence.

[2] = system: porphobilinogen deaminase (PBGD); assay: PBGD enzymatic activity assay in K562 cells; assay type: cell-based, human; conditions: 0.5 mM, 96 hours, vs ALA alone, BA alone or mixture
Procedure: K562 cells (1×10^6) are treated for 96 hours. PBGD activity is assayed as previously described by determining the fluorescence of uroporphyrin formed by the light-induced oxidation of uroporphyrinogen, which is the immediate product of the enzymatic deamination of 4 porphobilinogen molecules. In short, cells are harvested following treatment, and washed twice with PBS. After centrifugation, the pellet was resuspended in 200 μL 50 mM Tris buffer (pH 8.2) with 0.2% Triton. The cells are homogenized on ice and protein levels are quantified using the Bradford method. 400 μg protein was taken out in duplicates for incubation in 300 μL of 50 mM Tris buffer (pH 8.2) containing 0.2% Triton, with final concentration of 85 μM PBG (Sigma, Israel) for 1 hour at 37° C. The reaction is stopped by addition of 1.2 mL 15.6% TCA. […] The samples fluorescence is read using a Synergy spectrofluorometer (BioTek Instruments, VT, USA) with an excitation wavelength of 404 nm, and an emission wavelength of 595 nm. PBGD specific activity is calculated as activity percentage of control.
(§1) K562 cells are grown as described above and incubated with 0.5 mM of various compounds for 96 hours. Activity of PBGD is evaluated as described above. Expression level of the PBGD protein is evaluated using Western blot analysis (as detailed above). Expression level of PBGD mRNA are evaluated using Quantitative real-time PCR.

PBGD = PBGD protein expression, Western blot, K562 cells; assay type: cell-based, human; conditions: 0.5 mM, 96 hours, compared to untreated cells or cells treated with ALA
Procedure: (§2) Proteins are quantified and equalized using the Bradford assay (Bio-Rad, CA, USA) and resolved on a 12% polyacrylamide gel. Afterwards, proteins are transferred from the gel onto nitrocellulose membranes (Bio-Rad, CA, USA) using a semi-dry transfer apparatus (Bio-Rad, CA, USA). After blocking the membranes with phosphate-buffered saline+0.2% Tween-20 (PBST) (Sigma-Aldrich, Israel) and 5% skim-milk (BD-Diagnostic Systems, MD, USA), membranes are incubated with primary rabbit anti-human PBGD antibody (a generous gift from flemeBiotech, Sweden), or with rabbit anti-α-Hb (H80) (Santa Cruz Biotechnology, CA, USA), or with HRP-conjugated mouse anti-β-actin antibody (C4) (Santa Cruz Biotechnology, CA, USA) diluted in blocking solution for 1 h in room temperature or for overnight in 4° c., washed with PBST and incubated with secondary antibodies diluted in blocking solution. Immuno-reactive proteins were visualized with enhanced chemiluminiscence detection EZ-ECL kit (Biological Industries, Israel) used as recommended by the manufacturer.
as §1

Ferrochelatase = Ferrochelatase protein expression in K562 cells; assay type: cell-based, human; conditions: vs ALA, BA or their mixture
Procedure: K562 cells are fixed and stained with primary antibodies anti-αHb or anti-Glycophorin A and are tagged using the compatible secondary antibodies-Alexa 488-conjugated anti-rabbit antibody donkey anti-goat (Invitrogen, Oregon, USA) as recommended by Cell Signaling (MA, USA). Fluorescence is measured in 10,000 cells using FACS with an excitation wavelength of 488 nm and emission wavelength of 530 nm. K562 cells were suspended in paraformaldehyde 4% for 10 min at 37° C., followed by incubation with chilled methanol (final concentration 90%) for 30 min on ice. Cells were washed twice with PBS−/− and blocked with BSA 0.5% in PBS−/− for 10 min at room temperature. Afterwards, the cells were incubated in 50 μL of the primary antibody goat polyclonal Ferrochelatase (Santa Cruz Biotechnology, Santa Cruz, Calif., USA) or goat polyclonal glycophorin A (Santa Cruz Biotechnology, Santa Cruz, Calif., USA) (1:50 in BSA 0.5%) or anti-a Hb for 30 min at room temperature, washed once with PBS−/−, and incubated with a fluorescent donkey anti-goat IgG secondary antibody (1:1000) (Invitrogen, Carlsbad, Calif., USA) for 30 min at room temperature. The cells were washed again with PBS−/− and fluorescence was measured in 10,000 cells per sample using a FACS (Becton-Dickinson, San Jose, Calif., USA) with an excitation wavelength of 488 nm and emission wavelength 530 nm. […]

K562 cells [3] = assay: Intracellular total heme assay in K562 cells; assay type: cell-based, human; conditions: 0.5 mM, 96 hours, vs ALA alone, BA alone or mixture
Procedure: The method for quantitative determination of total heme in cell lysates is performed using hemin as a standard. The “total heme” or “endogenous heme” measured in these assays includes bound and free heme. Following treatments, 100 or 500 μg of cell lysate was added to 100 μL orthotolidine reagent (0.25 gr orthotolidine (Sigma-Aldrich, Israel) dissolved in 80 mL glacial acetic acid (Sigma-Aldrich, Israel) and 10 mL dd H2O). Heme is oxidized to a green product by adding 100 μL of 1.2% H2O2 to the mixture for 10 minutes incubation in the dark. The first oxidation product was further oxidized to a yellow product by adding 0.5 mL of a 1:9 v/v solution of diluted acetic acid. Absorbance of the second product was read at 430 nm using a spectrophotometer (Tecan Trading AG, Switzerland).
(§3) K562 cells are grown as described above and incubated with 0.5 mM of various compounds for 96 hours. Total heme content in the cells is evaluated. In addition, a globin mRNA and protein expression levels are evaluated using Quantitative real-time PCR and Western blot analysis, respectively.

α-globin [4] = assay: α-globin mRNA, quantitative real-time PCR, K562 cells; assay type: cell-based, human; conditions: 0.5 mM, 72 hours (peak)
Procedure: Globin RNAs are quantified by quantitative real time polymerase chain reaction, (qRT-PCR) using SYBR I Green (Applied Biosystems). The cDNA is generated from cell culture or tissues using a PCR purification kit (Qiagen, Valencia, Calif., USA). The qRT-PCR is performed in triplicate and is repeated in at least three separate experiments.
(§4) Total RNA (1 μg) was primed by oligo dT and reverse-transcribed by Verso cDNA kit according to the manufacturer's protocol (Thermo Scientific, West Palm Beach, USA). Quantitative PCR was done on a Step One Plus thermocycler (Applied Byosystems, Van Allen Way, CA, USA). The comparative threshold method was used to calculate the relative gene expression. Values were normalized against glyceraldehyde 3-phosphate dehydrogenase (GAPDH) for the different genes. Real time PCR was performed with Syber Green (Kapa Biosystems, Woburn, Mass., USA) using the following primers: […]
as §3

α-globin [5] = assay: α-globin protein expression, Western blot, K562 cells; assay type: cell-based, human; conditions: 0.5 mM, 96 hours, compared to any other treatment
Procedure: as §2, §3

Glycophorin A = Glycophorin A expression by flow cytometry (erythroblast differentiation); assay type: cell-based, human; conditions: K562 cells, 0.5 mM, 96 hours; compared to any other treatment
Procedure: K562 cells are fixed and stained with primary antibodies anti-αHb or anti-Glycophorin A and are tagged using the compatible secondary antibodies-Alexa 488-conjugated anti-rabbit antibody donkey anti-goat (Invitrogen, Oregon, USA) as recommended by Cell Signaling (MA, USA). Fluorescence is measured in 10,000 cells using FACS with an excitation wavelength of 488 nm and emission wavelength of 530 nm. K562 cells were suspended in paraformaldehyde 4% for 10 min at 37° C., followed by incubation with chilled methanol (final concentration 90%) for 30 min on ice. Cells were washed twice with PBS−/− and blocked with BSA 0.5% in PBS−/− for 10 min at room temperature. […] The cells were washed again with PBS−/− and fluorescence was measured in 10,000 cells per sample using a FACS (Becton-Dickinson, San Jose, Calif., USA) with an excitation wavelength of 488 nm and emission wavelength 530 nm.
K562 cells are grown as described above and incubated with 0.5 mM of various compounds for 96 hours. […] Glycophorin A content is measured using immunostaining analyzed by flow cytometry, as detailed above. […]

K562 cells [6] = assay: MTT viability / proliferation of K562 cells; assay type: cell-based, human; conditions: 96 hours
Procedure: Cells are grown in 24 wells plate in a volume of 0.5 mL and treated as indicated for 96 hours. Then, 77 μL of 5 mg/mL MTT (3-[4,5-dimethylthiazol-2-yl]-2,5-diphenyltetrazolium bromide, (Sigma, Israel)) is added to each well for 2 hours. Afterwards, 400 μL of DMF solution (100 gr SDS dissolved in 250 mL dd H2O with 250 mL of DMF) is added for 4 hours. Absorbance is then measured in 570 nm using a Tecan spectrophotometer (NeoTec, Canada).
To evaluate the effect of various tested compounds on cell proliferation, K562 cells were treated for 96 hours and their viability was evaluated by MTT as detailed above.

K562 cells [7] = assay: TEM ultrastructure of K562 cells (cellular maturation); assay type: cell-based, human; conditions: 96 hours
Procedure: Analysis is performed on bone-marrow, spleen and liver, processed as described in [17]. Briefly, cells are treated for 96 hours (hrs), harvested and fixed with Karnovsky fixative. The samples are washed in 0.1 M cacodylate buffer and fixed with 1% OsO4 in 0.1 M sodium cacodylate buffer for 1 hour (h). The samples are then dehydrated in graded ethanol solutions and propylene oxide and embedded in agar mix. Thin sections are cut, stained with uranyl acetate and lead citrate, and observed under a transmission electron microscope.
To evaluate morphologic changes associated with the effect of compound of formula (I-a) (in this example, AlaAcBu) and the ALA+HDACI (in this example, BA) mixture on K562 cells, the cells were examined by immunohystochemical experiments, as shown in FIG. 7.

Balb-c mice = assay: Doxorubicin induced anemia in mice, blood hemoglobin; assay type: in vivo; conditions: male Balb-c mice, Dox 4 mg/kg ip once a week + 50 mg/kg ip compound, day 19; vs Dox alone
Procedure: In an additional setting 8 weeks old male Balb-c mice were divided to two groups, Group 1 received 4 mg/kg ip dose of Doxorubicin (Dox) once a week and Group 2 received the same Doxorubicin treatment and in addition the mice were treated with 50 mg/kg ip dose of the tested compound three times a week. Termination was done on day 19, blood samples were drawn by retro-orbital venipuncture under anesthesia. Hemoglobin levels in heparinized whole blood were determined using Drabkints reagent and standard hemoglobin obtained from Sigma-Aldrich and prepared and stored as instructed by the manufacturer.
In vivo 8 weeks old male Balb-c mice were divided to two groups, Group 1 received 4 mg/kg ip dose of doxorubicin (Dox) once a week and Group 2 received the same Dox treatment and in addition the mice were treated with 50 mg/kg ip dose of compound of formula (I-a) (in this example, 1-(butyryloxy)ethyl-5-amino-4-oxopentanoate, (AlaAcBu)) three times a week. The experiment was terminated on day 19, blood samples were drawn by retro-orbital venipuncture under anesthesia. Hemoglobin levels in heparinized whole blood were determined using Drabkin's reagent and standard hemoglobin obtained from Sigma-Aldrich and prepared and stored as instructed by the manufacturer.

HDAC class I and II = assay: Cellular HDAC activity (Fluor de Lys) in U-251 cells; assay type: cell-based, human; conditions: 2 hours with substrate, read-out: IC50 of HDAC inhibition
Procedure: Inhibition of the activity HDAC class I and II in the cells is performed with the fluorescent kit (AK-503, Biomol, USA). The cells are seeded (10×10^3 cells/well) in 96-well plates (in quadruplicates) in growth medium for 24 hours and then treated. Incubation with the HDAC substrate (Fluor de Lys™) is for 2 hours. The reaction is terminated by the addition of Fluor de Lys™ developer and 2 μM trichostatin A (TSA). The % of inhibition is calculated from the ratio of the fluorescence (measured at 355 nm excitation and 460 nm emission) in the treated compared to the untreated control culture.
In order to test the direct effect of octanoic acid, as well as co-drugs of formula (I-a) (which comprise octanoic acid as the carboxylic acid), on the activity of cellular HDAC, the activity of HDAC is evaluated by incubating U-251 cells for 2 hours with the cell-permeable HDAC fluorometric substrate for HDAC class I and II (Fluor de Lys™), as detailed above.

PBGD mRNA = assay: PBGD mRNA, quantitative real-time PCR, K562 cells; assay type: cell-based, human; conditions: 0.5 mM, after 48-96 hours
Procedure: as §4
Relative quantification of gene expression was determined by the comparative threshold method (ÄCT), as described previously (Livak K J, Schmittgen T D). Analysis of relative gene expression data using real-time quantitative PCR and the 2(−Delta Delta C(T)) Method. Expression of the Gapdh mRNA in each individual sample was used to normalize the dataset.
as §1

Structure (SMILES): CCCC(=O)OC(C)OC(=O)CCC(=O)CN (stereo not drawn) [AlaAcBu, 1-(butyryloxy)ethyl 5-amino-4-oxopentanoate]
- intensity of the fluorescence generated by PpIX (K562 cells [1]): substantially higher
- relative activity of PGBD compared to control [2]: higher
- expression levels of PGBD (protein, Western blot) (PBGD): increased similarly
- Ferrochelatase protein expression (Ferrochelatase): significantly higher level
- fold increase in total heme content (K562 cells [3]): higher
- α-globin mRNA expression, fold elevation (α-globin [4]): 11.3 fold
- protein expression levels of α-globin (α-globin [5]): markedly elevated
- relative expression of Glycophorin A (percentage of control) (Glycophorin A): highest increase
- inhibition of cell proliferation (MTT) (K562 cells [6]): 33%
- ultrastructural changes identified by TEM (K562 cells [7]): chromatin condensation, cytosolic hemoglobinization
- hemoglobin level in blood (Balb-c mice): ameliorate the Dox-induced suppression of erythropoiesis

Structure (SMILES): CCCCCCCC(=O)O [octanoic acid]
- IC50 (HDAC class I and II): 500 µM

Structure (SMILES): CCCC(=O)O [BA, butyric acid]
- expression levels of PGBD (protein, Western blot) (PBGD): increased similarly
- α-globin mRNA expression, fold elevation (α-globin [4]): 9.1 fold
- cell viability (MTT, mitochondria activity % of control) (K562 cells [6]): even increased it

Structure (SMILES): NCC(=O)CCC(=O)O [ALA, 5-aminolevulinic acid]
- PBGD mRNA level (PBGD mRNA): significantly decreased
- α-globin mRNA expression, fold elevation (α-globin [4]): 2.2 fold
- cell viability (MTT, mitochondria activity % of control) (K562 cells [6]): did not affect cell viability
